This note sets out measurements from US7576094B2, “Spiro derivatives as lipoxygenase inhibitors” (Eli Lilly and Company, priority 2004, dated 2009).

Usually IC50 stands for the point on the concentration scale where inhibition reaches its midpoint.

In the assay the target is T1, human recombinant 5-Lipoxygenase (Homo sapiens, UniProt P09917).
T1 sequence (P09917 1-674): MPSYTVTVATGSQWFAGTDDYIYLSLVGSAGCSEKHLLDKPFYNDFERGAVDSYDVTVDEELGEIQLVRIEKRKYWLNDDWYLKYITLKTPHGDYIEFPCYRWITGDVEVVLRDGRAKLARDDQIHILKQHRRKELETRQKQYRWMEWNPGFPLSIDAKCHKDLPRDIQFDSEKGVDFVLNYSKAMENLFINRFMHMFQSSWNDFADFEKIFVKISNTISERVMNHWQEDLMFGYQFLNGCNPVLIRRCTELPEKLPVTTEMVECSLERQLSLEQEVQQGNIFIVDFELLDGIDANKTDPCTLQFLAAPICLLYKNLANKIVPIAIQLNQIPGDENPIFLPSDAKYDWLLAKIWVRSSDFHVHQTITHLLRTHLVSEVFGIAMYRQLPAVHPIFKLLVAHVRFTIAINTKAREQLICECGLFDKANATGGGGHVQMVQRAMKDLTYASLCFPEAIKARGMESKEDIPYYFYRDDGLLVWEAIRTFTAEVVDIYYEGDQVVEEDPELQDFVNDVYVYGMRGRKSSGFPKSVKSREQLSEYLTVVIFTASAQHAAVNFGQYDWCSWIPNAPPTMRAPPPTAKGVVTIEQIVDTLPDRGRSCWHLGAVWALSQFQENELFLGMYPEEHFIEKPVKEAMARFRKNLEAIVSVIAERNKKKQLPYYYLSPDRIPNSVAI
Nature of the assay: 5-Lipoxygenase Enzyme Assay. Format: biochemical. Particulars: 70 μM arachidonic acid, 10 minute incubation at room temperature, FOX reagent, absorbance at 620 nm; read-out: inhibition of 5-Lipoxygenase with an IC50. An excerpt: This procedure was used for measuring the enzymatic activity of human recombinant 5-Lipoxygenase using a colorimetric method based on the ferric oxidation of xylenol orange.
• 96 well flat bottom microfilter plates (VWR, Catalog # 62402-933 9295) • Lipoxygenase screening assay buffer (Cayman, Catalog # 760710) • Human recombinant 5-Lipoxygenase (Cayman, Catalog # 60402) • Arachidonic Acid (Sigma, Catalog # A3555) • Xylenol orange tetra sodium salt (Aldrich, Catalog # 227854) • Iron (II) sulfate heptahydrate (Sigma, Catalog # F7002) • Sulfuric acid (95-98%) [18 M] • Methanol Procedure
Human recombinant 5-Lipoxygenase (Cayman Cat # 60402) was used in this assay. The test compound and/or vehicle was added to 0.5 μL 5-Lipoxygenase in 50 mM Tris-HCl buffer, pH 7.4. The reaction was initiated by addition of 70 μM arachidonic acid in Tris-HCl buffer, pH 7.4, and terminated after a 10 minute incubation at room temperature by addition of FOX reagent (25 mM sulfuric acid, 100 μM xylenol orange, 100 μM iron (II) sulfate, methanol:water 9:1). The yellow color of acidified xylenol orange was converted to a blue color by the lipid hydroperoxide-mediated oxidation of Fe^2+ ions and the interaction of the resulting Fe^3+ ions with the dye. The complex was allowed to form during a 1 hour incubation at room temperature with shaking. Absorbance of the Fe^3+ complex was then measured at […] using a spectrophotometer.
Negative controls contained enzyme during the incubation step but substrate was not added until after the FOX reagent. Compounds were screened at 5 concentrations in triplicate starting at 10 μM
In the case of `COC(=O)c1ccc(CN2c3cc(C)c(O)c(C)c3CCC23CCC3)cc1` [methyl 4-((6′-hydroxy-5′,7′-dimethyl-3′,4′-dihydro-1′H-spiro[cyclobutane-1,2′-quinoline]-1′-yl)methyl)benzoate], the IC50 is < 300 nM. As to `Cc1c(C)c2c(c(C)c1OC(=O)CN(C)C)CCC1(CCC1)O2` [5,7,8-trimethyl-3,4-dihydrospiro[chromene-2,1′-cyclobutan]-6-yl (dimethylamino)acetate], the IC50 is < 300 nM. As for `Cc1c(C)c2c(c(C)c1OC(=O)CN(C)C)CCC1(CCC1)S2` [5′,7′,8′-trimethyl-3′,4′-dihydrospiro[cyclobutane-1,2′-thiochromen]-6′-yl (dimethylamino)acetate], the figure is < 300 nM. As to `Cc1c(O)cc(C(C)C)c2c1CCC1(CCC1)O2` [8-isopropyl-5-methyl-3,4-dihydrospiro[chromene-2,1′-cyclobutan]-6-ol], the IC50 was < 300 nM.

As to `CCCC(=O)NC1CC2(CCC2)Oc2c(C)c(C)c(O)c(C)c21` (stereo not drawn) [N-(6-hydroxy-5,7,8-trimethyl-3,4-dihydrospiro[chromene-2,1′-cyclobutan]-4-yl)butanamide], the IC50 was < 300 nM. As to `CCONC1CC2(CCC2)Oc2c(C)c(C)c(O)c(CC)c21` (stereo not drawn) [4-(ethoxyamino)-5-ethyl-7,8-dimethyl-3,4-dihydrospiro[chromene-2,1′-cyclobutan]-6-ol], the half-inhibitory concentration (IC50) was < 300 nM. Take `COCc1c(C)c(O)c(C)c2c1OC1(CCC1)CC2` [8-(methoxymethyl)-5,7-dimethyl-3,4-dihydrospiro[chromene-2,1′-cyclobutan]-6-ol]: the IC50 is < 300 nM. On to `Cc1cc2c(c(C)c1O)C(OC(C)C)CC1(CCC1)O2` (stereo not drawn) [4-isopropoxy-5,7-dimethyl-3,4-dihydrospiro[chromene-2,1′-cyclobutan]-6-ol], for which the IC50 was < 300 nM. Consider `Cc1c(C)c2c(c(C)c1OC(=O)n1ccnc1)CCC1(CCC1)O2` [5,7,8-trimethyl-3,4-dihydrospiro[chromene-2,1′-cyclobutan]-6-yl 1H-imidazole-1-carboxylate], for which the IC50 is < 300 nM. For `CCc1c(O)c(C)c(C)c2c1C(NOC)CC1(CCC1)O2` (stereo not drawn) [5-ethyl-4-(methoxyamino)-7,8-dimethyl-3,4-dihydrospiro[chromene-2,1′-cyclobutan]-6-ol], the IC50 was < 300 nM. As for `Cc1c(C)c2c(c(C)c1O)C(CN)=CC1(CCC1)O2` [4-(aminomethyl)-5,7,8-trimethylspiro[chromene-2,1′-cyclobutan]-6-ol], the figure is < 300 nM.

`CON(C)C1CC2(CCC2)Oc2cc(C)c(O)c(C)c21` (stereo not drawn) [4-[methoxy(methyl)amino]-5,7-dimethyl-3,4-dihydrospiro[chromene-2,1′-cyclobutan]-6-ol]: the IC50 was < 300 nM. Consider `CCc1cc2c(c(CC)c1O)C(O)C1(CCC1)CO2` (stereo not drawn) [5,7-diethylspiro[chroman-3,1′-cyclobutane]-4,6-diol], for which the IC50 was < 300 nM. As for `Cc1c(O)cc2c(c1C)N(c1ccc(O)cc1)CC1(CCC1)C2` [1′-(4-hydroxyphenyl)-7′,8′-dimethyl-2′,4′-dihydro-1′H-spiro[cyclobutane-1,3′-quinolin]-6′-ol], the figure is < 300 nM; as for `CO/N=C1\CC2(CCC2)Oc2cc(C)c(O)c(C)c21` [6-hydroxy-5,7-dimethylspiro[chromene-2,1′-cyclobutan]-4(3H)-one O-methyloxime], < 300 nM.

On to `Cc1c2c(c(C)c(Cl)c1OC(=O)c1cccnc1)OC1(CCC1)CC2` [7-chloro-5,8-dimethyl-3,4-dihydrospiro[chromene-2,1′-cyclobutan]-6-yl nicotinate], for which the IC50 was < 300 nM.

`Cc1cc2c(c(C)c1O)CCC1(CCC1)N2Cc1ccc(Cl)cc1` [1′-(4-chlorobenzyl)-5′,7′-dimethyl-3′,4′-dihydro-1′H-spiro[cyclobutane-1,2′-quinolin]-6′-ol]: the concentration for half-maximal inhibition (IC50) is < 300 nM. As for `CONC1CC2(CCC2)Oc2c(C)c(C)c(O)c(C)c21` (stereo not drawn) [4-(methoxyamino)-5,7,8-trimethyl-3,4-dihydrospiro[chromene-2,1′-cyclobutan]-6-ol], the figure is < 300 nM.

As for `CC(=O)NC1CC2(CCC2)Oc2c(C)c(C)c(O)c(C)c21` (stereo not drawn) [N-(6-hydroxy-5,7,8-trimethyl-3,4-dihydrospiro[chromene-2,1′-cyclobutan]-4-yl)acetamide], the IC50 is < 300 nM. With `CC(C)c1c(O)c(C(C)C)c2c(c1C=O)OC1(CCC1)CC2` [6-hydroxy-5,7-diisopropyl-3,4-dihydrospiro[chromene-2,1′-cyclobutane]-8-carbaldehyde], the IC50 was < 300 nM. `COC(=O)c1ccc(N2CC3(CCC3)Cc3cc(O)c(C)c(C)c32)cc1` [methyl 4-(6′-hydroxy-7′,8′-dimethyl-2′,4′-dihydro-1′H-spiro[cyclobutane-1,3′-quinoline]-1′-yl)benzoate]: the IC50 was < 300 nM.

In the case of `Cc1c(O)cc2c(c1C)N(c1ccc(N3CCNCC3)nc1)CC1(CCC1)C2` [7′,8′-dimethyl-1′-(6-(piperazin-1-yl)pyridin-3-yl)-2′,4′-dihydro-1′H-spiro[cyclobutane-1,3′-quinolin]-6′-ol], the half-inhibitory concentration (IC50) was < 300 nM. For the compound `CCCc1ccc([S+](=O)([O-])NCCN2CC3(CCC3)Cc3cc(O)c(C)c(C)c32)cc1` [N-(2-(6′-hydroxy-7′,8′-dimethyl-2′,4′-dihydro-1′H-spiro[cyclobutane-1,3′-quinoline]-1′-yl)ethyl)-4-propylbenzenesulfonamide], the concentration for half-maximal inhibition (IC50) was < 300 nM. For `COC(=O)CN1CC2(CC2)Cc2cc(O)c(C)c(C)c21` [methyl 2-(6′-hydroxy-7′,8′-dimethyl-2′,4′-dihydro-1′H-spiro[cyclopropane-1,3′-quinoline]-1′-yl)acetate], the IC50 is < 300 nM.

With `Cc1c(C)c2c(c(C)c1O)C(O)C1(CCC1)CN2c1ccc(Cl)cc1` (stereo not drawn) [1′-(4-chlorophenyl)-5′,7′,8′-trimethyl-2′,4′-dihydro-1′H-spiro[cyclobutane-1,3′-quinoline]-4′,6′-diol], the IC50 is < 300 nM. With `CONCc1c2c(c(C(C)C)c(O)c1C(C)C)CCC1(CCC1)O2` [5,7-diisopropyl-8-[(methoxyamino)methyl] 3,4-dihydrospiro[chromene-2,1′-cyclobutan]-6-ol] the figure was < 300 nM. Turning to `CCO/N=C1\CC2(CCC2)Oc2cc(C)c(O)c(C)c21` [(4E)-6-hydroxy-5,7-dimethylspiro[chromene-2,1′-cyclobutan]-4(3H)-one O-ethyloxime], the IC50 was < 300 nM. As for `CCONC1CC2(CCC2)Oc2cc(CC)c(O)c(CC)c21` (stereo not drawn) [4-(ethoxyamino)-5,7-diethyl-3,4-dihydrospiro[chromene-2,1′-cyclobutan]-6-ol], the figure is < 300 nM; as for `CCO/N=C1/CC2(CCC2)Oc2cc(C)c(O)c(C)c21` [(4Z)-6-hydroxy-5,7-dimethylspiro[chromene-2,1′-cyclobutan]-4(3H)-one O-ethyloxime], < 300 nM; as for `Cc1c(O)cc2c(c1C)N(c1ccc(S(C)(=O)=O)cc1)CC1(CCC1)C2` [7′,8′-dimethyl-1′-(4-(methylsulfonyl)phenyl)-2′,4′-dihydro-1′H-spiro[cyclobutane-1,3′-quinolin]-6′-ol], < 300 nM.
